The subject of test [1] is patients with nonsense-mutation-mediated cystic fibrosis. Put plainly: Pulmonary function tests (FEV1, FVC), Phase 2 cystic fibrosis study. The format is in vivo, human. The method, then:
Pulmonary function tests, including FEV1, FVC, and MEF25-75, are measured using standard spirometry procedures. Assessments of pulmonary function (including MEF25-75, FVC, and, particularly, FEV1) have been acknowledged as definitive clinical endpoints in patients with CF (Food and Drug Administration, 62nd Anti-Infective Drugs Advisory Committee. Discussion of NDA for tobramycin solution for inhalation (Tobi®) for the management of cystic fibrosis patients. November, 1997; Tiddens, 2002, Pediatr. Pulmonol. 34(3): 228-31). […] Pulmonary function testing is simple to administer (even in patients as young as 7 years of age), and uses standardized equipment and techniques that are widely available. Interpretation is performed using well-established normative equations that account for patient age, height, and gender.
3-[5-(2-Fluoro-phenyl)-[1,2,4]oxadiazol-3-yl]-benzoic acid was provided in a formulation described herein.
Clinical endpoints were evaluated using the procedures set forth above. TEPD measurements were made prior to treatment and on days 14 and 28 of Cycle 1 and Cycle 2. Nasal mucosal curettage was collected from each nostril of each patient prior to treatment and on days 14 and 28 of Cycle 1 and Cycle 2. Pulmonary tests, including FEV1, FVC and MEF25-75, were measured prior to treatment, on day −1 of Cycle 2, on day 13 or 14 of Cycle 1 and day 13 or 14 of Cycle 2 in the study being conducted in Israel and the same parameters were measured prior to treatment and on day 13 or 14 of Cycle 2 in the study being conducted in the United States.
Statistically significant results and positive trends for secondary endpoints were also observed. In particular, although the trials were not been powered to detect statistical significant changes in secondary endpoints, statistically significant improvements from study entry to the end of the higher-dose treatment cycle in the patients' mean FEV1, FVC and weight were observed.

Test [2] concerns dystrophin. Briefly: Dystrophin expression in EDB muscle biopsy by immunofluorescence, Phase 2 DMD study. The format is in vivo, human. To be noted: for In Vivo Expression Response (dystrophin): individual DMD patients, 28 days. As for the experimental part: Biopsy of the EDB muscle and overlying skin from one foot is performed under local anesthesia and conscious sedation (in some cases, general anesthesia may be required) prior to treatment, and from the other foot on the last day of treatment. The biopsy procedure is performed using standardized techniques (Stedman, 2000, Human Gene Therapy 11:777-90). The entire muscle belly (whenever possible) is removed in the procedure. At the time of collection of the biopsy prior to treatment, the muscle specimen is divided into at least 3 fragments and the biopsy specimen collected on the last day of treatment is divided into at least 2 fragments. The biopsy specimen is placed on a telfa gauze sponge moistened with Ringer's saline. The biopsy specimen is viewed at low power under a stereo dissection microscope to establish fiber orientation. The muscle is then transected using a sharp scalpel in a cross sectional fashion (perpendicular to the orientation of the fibers) whenever possible and allowed to rest for 2 minutes to allow for the cessation of spasm. The sample is then frozen in liquid nitrogen cooled isopentane, transferred to a liquid nitrogen reservoir and held 1 inch above the liquid/vapor interface for 2 minutes of slow cooling and isopentane evaporation before immersion in the liquid nitrogen, and wrapped into precooled (in liquid nitrogen and stored on dry ice) foil labeled with the study number, site number, patient number, date, patient initials, and foot side (right foot or left foot).
All sample containers are clearly labeled in a fashion that identifies the subject and the collection date. Labels are fixed to the sample containers in a manner that prevents the label from becoming detached. Samples are shipped for analysis/culture/central review immediately after the procedure is performed. For detection of dystrophin, 3 commercially available antibodies that recognize the C-terminus, the N-terminus, and the rod domain of the protein are employed. For detection of the sarcoglycan and dystroglycan complex, commercially available antibodies against α-, β-, γ-, and δ-sarcoglycan, and β-dystroglycan are used when possible. Epifluorescence microscopy is used in the analysis; images are captured by CCD camera, after normalization of the fluorescence intensity against a normal muscle specimen. Images are stored digitally and preserved for future review, and final evaluation at the completion of the study. Tissues are also processed for detection of dystrophin, the sarcoglycans, and β-dystroglycan by Western blotting using the same antibodies. Microscopic images are captured and preserved for future review, and for final evaluation at the completion of the study. Remaining muscle tissue samples are preserved for confirmatory assays of mRNA and proteins involved in DMD. […]

The mark [3] stands for this setting: study entry to end of higher dose treatment.

“And” between values parts separate entries of the source, which are not always exact repeats. Equal values may be shown once.

Take `O=C(O)c1cccc(-c2noc(-c3ccccc3F)n2)c1` [3-[5-(2-fluoro-phenyl)-[1,2,4]oxadiazol-3-yl]-benzoic acid]: in test [1] (end of higher-dose cycle (10, 10, 20 mg/kg TID), study entry 65.8%), the “Mean FEV1 (percentage of normal for gender, age and height), End of Higher Dose Treatment” value is listed as 69.1%. Also, in test [1] (end of higher-dose cycle (10, 10, 20 mg/kg TID), study entry 80.2%), the “Mean FVC (percentage of normal for gender, age and height), End of Higher Dose Treatment” value was found to be 85.1%. Further, the “Mean FEV1 (percentage of normal), Change” value in test [1] (setting [3]) is given as 3.3%. The “Mean FVC (percentage of normal), Change” value in test [1] (setting [3]) is on record as 4.9%. Besides, the “In Vivo Expression Response (dystrophin)” value is “Yes (6×) and No (6×)” in test [2] (High Dose: 20, 20, 40 mg/kg); “Yes (4×) and No (2×)” in test [2] (Low Dose: 4, 4, 8 mg/kg); “Yes (10×) and No (10×)” in test [2] (Middle Dose: 10, 10, 20 mg/kg). Also, the “Extensor digitorum brevis muscle membrane dystrophin on staining for the C-terminal domain” value in test [2] (some patients at both dose levels, day 28 relative to baseline) is “Partial restoration or increase”.
